The results in this text go back to patent US7863310B2, “Kinase inhibitors” (Eli Lilly and Company, priority 2004, dated 2011).

The structures appear in SMILES notation.

One experiment concerns TNF-α. The experiment is described as follows: Effect on intra-articular LPS induced TNF-α in rat ankles. The class given is in vivo. The following applies: female Lewis rats. As to the method: Intra-articular injection of LPS into rat ankles induces the synthesis of TNF-α, which can be measured in synovial lavage fluid. High levels of TNF-α are detectable within 2 hours. Since the joint is the site where arthritis develops, this model can rapidly determine whether an orally administered compound has an effect on an inflammatory response in the synovium.
Six female Lewis rats (150-200 g) are place in each treatment group. The animals are given vehicle (1% NaCarboxymethylcellulose-0.25% Tween 80) or Example 6 (1 mg/kg, 3 mg/kg, 10 mg/kg, and 30 mg/kg) orally. One hour later, 10 μl LPS (10 μg) is administered intra-articularly into the right ankle of each rat, while the left ankle receives 10 μL of saline. After two hours, each ankle is lavaged with 100 μL of saline. The lavage is collected and stored at −80° C. • Group#1: Vehicle (1% NaCMC-0.25% Tween 80, 1 mL, PO) • Group#2: Example 6 (free base) (1 mg/kg, 1 mL, PO) • Group#3: Example 6 (free base) (3 mg/kg, 1 mL, PO) • Group#4: Example 6 (free base) (10 mg/kg, 1 mL, PO) • Group#5: Example 6 (free base) (30 mg/kg, 1 mL, PO)
TNF-α was measured with a commercially available ELISA kit (R&D, RTA00). […] The TMED50=3 mg/kg for the compound of Example 6 in this assay.

Experiment [1] relates to Female Lewis rats, collagen induced arthritis. The experiment is described as follows: Rat Collagen Induced Arthritis Efficacy Model. The experiment is classed as in vivo. The following applies: 30 mg/kg bid, PO, 14 days. As to the method: Female Lewis rats ((≅190 gm, Charles River Labs) are immunized with Bovine type II collagen (2 mg/ml) emulsified with an equal volume of adjuvant (aluminum hydroxide). […]. The rats are immunized with approximately […] of the emulsion intradermally on the back neat the base of the tail. All animals are re-immunized 7 days later according to the same protocol. The rats begin to develop arthritis (characterized by swell-ling and redness of one or both ankles) from 12 to 14 days after the first immunization. The rats are equally distributed into five treatment groups at the first signs of arthritis and treatment is initiated with each rat dosed bid for 14 days.
Ankle diameter is measured with calipers 5 days a week and recorded. Data is expressed as the area under the curve (AUC) generated from the composite inflammation scores and statistical analysis performed.

In the experiment on TNF-α (oral, intra-articular LPS induced TNF-α in synovial lavage fluid), `CC(C)Cn1c(N)nc2ccc(-c3[nH]c(-c4c(F)cccc4F)nc3-c3ccccc3)cc21` [Example 6, 1-(Isobutyl)-2-amino-6-(2-(2,6-difluorophenyl)-4-phenyl-1H-imidazol-5-yl)-1H-benzimidazole] came in with a TMED50 of 3 mg/kg. The “reduced inflammation (AUC of composite inflammation scores, ankle diameter)” value in experiment [1] was found to be 30%.
With `CS(=O)(=O)O.C[C@@H](n1c(N)nc2ccc(-c3[nH]c(-c4c(F)cccc4F)nc3-c3ccccc3)cc21)C(C)(C)C` [Example 78, 6-[2-(2,6-Difluorophenyl)-5-phenyl-3H-imidazol-4-yl]-1-(1-(R)-methyl-2,2-dimethylpropyl)-1H-benzimidazol-2-ylamine methanesulfonate], the “inhibition of TNF-α synthesis, as measured in the synovial lavage fluid” value with TNF-α (oral 1, 3, 10, 30 mg/kg, intra-articular LPS 10 μg one hour later, lavage after two hours, ELISA) is on record as “dose-dependent inhibition”.
